Results as given in publication PMC11231114 (EJNMMI Research, 2024).

Experiment: Ex vivo biodistribution after i.v. injection
Assay type: in vivo, Wistar rats
Procedure: Approximately 0.2 mL/31.1 MBq of compound was administered i.v. At established time points after injection (15 min, 30 min, 1 h, 2 h, 4 h and 6 h), the animals were euthanized by cervical dislocation and dissected. Selected organs and tissues were weighed, and their radioactivity was measured using a NaI(Tl) crystal gamma counter. The results were adjusted for the radioactive decay of ^18F. The physiological distribution was calculated and expressed in terms of the percentage of administrated dose found in each of the selected organs (%ID) or per gram of tissues/organ (%ID/g) with suitable standards of the injected dose.
The results of radiopharmaceutical uptake are presented as a percentage of the dose administered per gram of tissue (%ID/g) in the form of an average with standard deviation (%ID/g; mean ± standard deviation (SD)). Where applicable, statistical analysis was performed with one-way analysis of variance (ANOVA) using GraphPad Prism software (GraphPad Software, La Jolla, CA, USA).

[1] = 15 min after dosing, listed as [18F]SYN2
[2] = 6 h after dosing, listed as [18F]SYN2

CN(C)c1ccc2cc3ccc(N(C)C)cc3[n+](CC[18F])c2c1 [[^18F]SYN2]
Mean %ID, Brain (15 min after dosing): 0.23 (0.09) %ID
Mean %ID, Heart (15 min after dosing): 2.15 (0.18) %ID
Mean %ID, Intestine (15 min after dosing): 17.1 ± 1.8 %ID
Mean %ID, Kidneys (15 min after dosing): 13.4 ± 4.0 %ID
Mean %ID, Liver (15 min after dosing): 7.57 (0.96) %ID
Mean %ID, Lungs (15 min after dosing): 3.88 (0.36) %ID
Mean %ID, Pancreas (15 min after dosing): 1.33 (0.23) %ID
Mean %ID, Rest of the body (15 min after dosing): 51.01 (2.66) %ID
Mean %ID, Spleen (15 min after dosing): 1.01 (0.20) %ID
Mean %ID, Stomach (15 min after dosing): 1.99 (0.68) %ID
Mean %ID, Urine (15 min after dosing): 0.46 (0.31) %ID
Mean %ID/g, Blood (15 min after dosing): 0.33 (0.04) %ID/g
Mean %ID/g, Brain (15 min after dosing): 0.13 (0.15) %ID/g
Mean %ID/g, Heart (15 min after dosing): 3.02 %ID/g
Mean %ID/g, Intestine (15 min after dosing): 0.98 (0.10) %ID/g
Mean %ID/g, Kidneys (15 min after dosing): 7.07 (1.77) %ID/g
Mean %ID/g, Liver (15 min after dosing): 0.89 (0.14) %ID/g
Mean %ID/g, Lungs (15 min after dosing): 3.04 (0.55) %ID/g
Mean %ID/g, Muscle (15 min after dosing): 0.82 (0.13) %ID/g
Mean %ID/g, Pancreas (15 min after dosing): 2.22 (0.24) %ID/g
Mean %ID/g, Spleen (15 min after dosing): 1.96 (0.51) %ID/g
Mean %ID/g, Stomach (15 min after dosing): 1.65 (0.94) %ID/g
Mean %ID, Intestine [1]: 17.12 (1.81) %ID
Mean %ID, Kidneys [1]: 13.35 (3.97) %ID
Mean %ID, Brain (30 min after dosing): 0.19 (0.01) %ID
Mean %ID, Heart (30 min after dosing): 2.19 (0.26) %ID
Mean %ID, Intestine (30 min after dosing): 18.27 (1.40) %ID
Mean %ID, Kidneys (30 min after dosing): 14.01 (3.78) %ID
Mean %ID, Liver (30 min after dosing): 6.87 (1.10) %ID
Mean %ID, Lungs (30 min after dosing): 2.64 (0.47) %ID
Mean %ID, Pancreas (30 min after dosing): 0.97 (0.32) %ID
Mean %ID, Rest of the body (30 min after dosing): 51.34 (1.73) %ID
Mean %ID, Spleen (30 min after dosing): 0.79 (0.16) %ID
Mean %ID, Stomach (30 min after dosing): 1.54 (0.12) %ID
Mean %ID, Urine (30 min after dosing): 0.53 (0.25) %ID
Mean %ID/g, Blood (30 min after dosing): 0.14 (0.02) %ID/g
Mean %ID/g, Brain (30 min after dosing): 0.11 (0.00) %ID/g
Mean %ID/g, Heart (30 min after dosing): 2.96 (0.49) %ID/g
Mean %ID/g, Intestine (30 min after dosing): 1.29 (0.40) %ID/g
Mean %ID/g, Kidneys (30 min after dosing): 7.22 (2.09) %ID/g
Mean %ID/g, Liver (30 min after dosing): 0.74 (0.11) %ID/g
Mean %ID/g, Lungs (30 min after dosing): 1.85 (0.24) %ID/g
Mean %ID/g, Muscle (30 min after dosing): 0.46 (0.11) %ID/g
Mean %ID/g, Pancreas (30 min after dosing): 1.75 (0.56) %ID/g
Mean %ID/g, Spleen (30 min after dosing): 1.59 (0.41) %ID/g
Mean %ID/g, Stomach (30 min after dosing): 1.11 (0.08) %ID/g
heart/liver ratio (1 h, based on %ID/g): 7.0 ± 1.8
heart/lungs ratio (1 h, based on %ID/g): 2.1 ± 0.2
Mean %ID, Brain (1 h after dosing): 0.22 (0.12) %ID
Mean %ID, Heart (1 h after dosing): 2.23 (0.11) %ID
Mean %ID, Intestine (1 h after dosing): 20.18 (3.19) %ID
Mean %ID, Kidneys (1 h after dosing): 12.91 (2.36) %ID
Mean %ID, Liver (1 h after dosing): 3.66 (0.83) %ID
Mean %ID, Lungs (1 h after dosing): 1.89 (0.23) %ID
Mean %ID, Pancreas (1 h after dosing): 0.93 (0.01) %ID
Mean %ID, Rest of the body (1 h after dosing): 46.30 (1.89) %ID
Mean %ID, Spleen (1 h after dosing): 0.60 (0.10) %ID
Mean %ID, Stomach (1 h after dosing): 1.84 (0.47) %ID
Mean %ID, Urine (1 h after dosing): 1.59 (0.30) %ID
Mean %ID/g, Blood (1 h after dosing): 0.08 (0.02) %ID/g
Mean %ID/g, Brain (1 h after dosing): 0.12 (0.06) %ID/g
Mean %ID/g, Heart (1 h after dosing): 3.0 ± 0.2 %ID/g
Mean %ID/g, Intestine (1 h after dosing): 1.04 (0.18) %ID/g
Mean %ID/g, Kidneys (1 h after dosing): 6.76 (1.23) %ID/g
Mean %ID/g, Liver (1 h after dosing): 0.45 (0.11) %ID/g
Mean %ID/g, Lungs (1 h after dosing): 1.42 (0.15) %ID/g
Mean %ID/g, Muscle (1 h after dosing): 0.58 (0.18) %ID/g
Mean %ID/g, Pancreas (1 h after dosing): 1.63 (0.16) %ID/g
Mean %ID/g, Spleen (1 h after dosing): 1.15 (0.23) %ID/g
Mean %ID/g, Stomach (1 h after dosing): 1.33 (0.33) %ID/g
Mean %ID/g, Heart (1 h after dosing, listed as [18F]SYN2): 2.99 (0.20) %ID/g
heart/blood ratio (1 h post-injection): 37
Mean %ID, Brain (2 h after dosing): 0.12 (0.01) %ID
Mean %ID, Heart (2 h after dosing): 2.03 (0.23) %ID
Mean %ID, Intestine (2 h after dosing): 25.93 (2.92) %ID
Mean %ID, Kidneys (2 h after dosing): 9.65 (1.42) %ID
Mean %ID, Liver (2 h after dosing): 2.46 (0.28) %ID
Mean %ID, Lungs (2 h after dosing): 1.25 (0.31) %ID
Mean %ID, Pancreas (2 h after dosing): 0.94 (0.22) %ID
Mean %ID, Rest of the body (2 h after dosing): 44.09 (5.00) %ID
Mean %ID, Spleen (2 h after dosing): 0.44 (0.04) %ID
Mean %ID, Stomach (2 h after dosing): 1.66 (0.16) %ID
Mean %ID, Urine (2 h after dosing): 3.94 (3.35) %ID
Mean %ID/g, Blood (2 h after dosing): 0.04 (0.00) %ID/g
Mean %ID/g, Brain (2 h after dosing): 0.07 (0.00) %ID/g
Mean %ID/g, Heart (2 h after dosing): 2.58 (0.24) %ID/g
Mean %ID/g, Intestine (2 h after dosing): 1.50 (0.24) %ID/g
Mean %ID/g, Kidneys (2 h after dosing): 5.10 (0.85) %ID/g
Mean %ID/g, Liver (2 h after dosing): 0.30 (0.04) %ID/g
Mean %ID/g, Lungs (2 h after dosing): 0.90 (0.22) %ID/g
Mean %ID/g, Muscle (2 h after dosing): 0.41 (0.09) %ID/g
Mean %ID/g, Pancreas (2 h after dosing): 1.55 (0.36) %ID/g
Mean %ID/g, Spleen (2 h after dosing): 0.84 (0.11) %ID/g
Mean %ID/g, Stomach (2 h after dosing): 1.23 (0.22) %ID/g
Mean %ID, Brain (4 h after dosing): 0.25 (0.04) %ID
Mean %ID, Heart (4 h after dosing): 2.15 (0.08) %ID
Mean %ID, Intestine (4 h after dosing): 30.51 (0.47) %ID
Mean %ID, Kidneys (4 h after dosing): 5.20 (0.36) %ID
Mean %ID, Liver (4 h after dosing): 1.71 (0.27) %ID
Mean %ID, Lungs (4 h after dosing): 0.89 (0.02) %ID
Mean %ID, Pancreas (4 h after dosing): 0.84 (0.35) %ID
Mean %ID, Rest of the body (4 h after dosing): 44.50 (2.38) %ID
Mean %ID, Spleen (4 h after dosing): 0.32 (0.03) %ID
Mean %ID, Stomach (4 h after dosing): 1.94 (0.38) %ID
Mean %ID, Urine (4 h after dosing): 12.42 (1.40) %ID
Mean %ID/g, Blood (4 h after dosing): 0.06 (0.02) %ID/g
Mean %ID/g, Brain (4 h after dosing): 0.13 (0.02) %ID/g
Mean %ID/g, Heart (4 h after dosing): 2.68 (0.44) %ID/g
Mean %ID/g, Intestine (4 h after dosing): 1.88 (0.10) %ID/g
Mean %ID/g, Kidneys (4 h after dosing): 2.86 (0.08) %ID/g
Mean %ID/g, Liver (4 h after dosing): 0.21 (0.05) %ID/g
Mean %ID/g, Lungs (4 h after dosing): 0.70 (0.02) %ID/g
Mean %ID/g, Muscle (4 h after dosing): 0.51 (0.04) %ID/g
Mean %ID/g, Pancreas (4 h after dosing): 1.56 (0.06) %ID/g
Mean %ID/g, Spleen (4 h after dosing): 0.66 (0.06) %ID/g
Mean %ID/g, Stomach (4 h after dosing): 1.58 (0.25) %ID/g
Mean %ID, Brain (6 h after dosing): 0.21 (0.02) %ID
Mean %ID, Heart (6 h after dosing): 2.27 (0.21) %ID
Mean %ID, Intestine (6 h after dosing): 33.4 ± 1.4 %ID
Mean %ID, Kidneys (6 h after dosing): 3.4 ± 0.4 %ID
Mean %ID, Liver (6 h after dosing): 1.07 (0.11) %ID
Mean %ID, Lungs (6 h after dosing): 0.78 (0.14) %ID
Mean %ID, Pancreas (6 h after dosing): 0.80 (0.05) %ID
Mean %ID, Rest of the body (6 h after dosing): 44.67 (1.68) %ID
Mean %ID, Spleen (6 h after dosing): 0.29 (0.02) %ID
Mean %ID, Stomach (6 h after dosing): 1.53 (0.15) %ID
Mean %ID, Urine (6 h after dosing): 15.27 (0.87) %ID
Mean %ID/g, Blood (6 h after dosing): 0.04 (0.01) %ID/g
Mean %ID/g, Brain (6 h after dosing): 0.13 (0.01) %ID/g
Mean %ID/g, Heart (6 h after dosing): 2.79 %ID/g
Mean %ID/g, Intestine (6 h after dosing): 2.00 (0.49) %ID/g
Mean %ID/g, Kidneys (6 h after dosing): 1.69 (0.22) %ID/g
Mean %ID/g, Liver (6 h after dosing): 0.12 (0.02) %ID/g
Mean %ID/g, Lungs (6 h after dosing): 0.55 (0.08) %ID/g
Mean %ID/g, Muscle (6 h after dosing): 0.53 (0.05) %ID/g
Mean %ID/g, Pancreas (6 h after dosing): 1.27 (0.10) %ID/g
Mean %ID/g, Spleen (6 h after dosing): 0.56 (0.02) %ID/g
Mean %ID/g, Stomach (6 h after dosing): 1.12 (0.12) %ID/g
Mean %ID, Intestine [2]: 33.42 (1.37) %ID
Mean %ID, Kidneys [2]: 3.44 (0.37) %ID
retention in all other organs examined (other than intestine, kidneys) (ex vivo biodistribution): < 2 %ID/g
myocardial uptake (from 2 to 6 h): 2.6–2.8 %ID/g
uptake in the myocardium (up to 6 h): higher than 2.5 %ID/g
myocardial uptake (within 1-hour post-injection): about 3.0 %ID/g
